Reference: publication PMC10283052, “Intranasal delivery of mitochondrial protein humanin rescues cell death and promotes mitochondrial function in Parkinson's disease” (Theranostics, 2023)

How the values were obtained:
[1] = system: mtDNA-depleted (Rho^0) SH-SY5Y cells; experiment: Humanin induction in mtDNA-depleted Rho0 cells (PCR, western blot); format: cell-based, human; details: Rho0 cells devoid of mtDNA; HN 20 μM, 24 h; conventional PCR and western blot
Description: For generating SH-SY5Y Rho^0 cells depleted of mitochondrial DNA, we treated the cells with ethidium bromide (0.5 μg/ml) (Sigma-Aldrich) for 2 months as described previously. SH-SY5Y Rho^0 cells were grown in the same culture medium but supplemented with an additional 50 μg/ml of uridine and 100 μg/ml of pyruvate to support cell growth.
Mouse brain tissue samples and cells were homogenized in radioimmunoprecipitation assay (RIPA) buffer (Cell Signaling, Danvers, MA, USA) in the presence of a protease and phosphatase inhibitor cocktail (Thermo Fisher Scientific). The samples were sonicated on ice, and the supernatant was collected after centrifugation at 4°C at 10,000 g for 5 min. The protein samples were loaded and separated using Tris-glycine SDS-PAGE. To detect the HN peptide, the proteins were separated into three layers of tricine SDS-PAGE, as previously described. The separated proteins were transferred to nitrocellulose membranes (GenDEPOT, Barker, TX, USA). The membranes were blocked for 0.5 h, followed by incubation with appropriate primary antibodies overnight at 4°C. […] The results were analyzed using the ImageJ densitometry system. […]
The loss of mtDNA in SH-SY5Y Rho^0 cells was determined by standard PCR with three pairs of primers (Table S1), two specifically for mtDNA (mt-ND4, humanin) and one specifically for nuclear DNA (ATP5PB). […]

[2] = system: Murine primary dopaminergic neurons; experiment: MPP+ toxicity in primary dopaminergic neurons (MTT, neurite analysis); format: cell-based, mouse
Description: Primary mesencephalic cell cultures were prepared using gestational day 13.5 embryos from C57BL/6J mice, as previously described. The mesencephalon was dissected from the embryos and dissociated in a medium containing 0.25% trypsin-EDTA and 0.05% DNase in PBS for 15 min at 37 °C. Tissue samples were mechanically dissociated by gentle pipetting using Pasteur pipettes. After centrifugation at 400 x g for 5 min, the cells were plated in Neurobasal-A medium (Thermo Fisher Scientific, Waltham, MA, USA) supplemented with 2% B27 supplement (Thermo Fisher Scientific), 1× Glutamax (Thermo Fisher Scientific), 5% fetal bovine serum (FBS), 0.36% D-glucose, and 1% Penicillin/Streptomycin (P/S) in poly-L-ornithine/laminin (Sigma-Aldrich)-coated plates. On day 4 in vitro (DIV), the plating medium was replaced, and the neurons were used on DIV 8 for subsequent experiments.
Following treatment with the aforementioned reagents, the cells were washed and treated with 3-(4,5-dimethylthiazol-2-yl)-2,5-diphenyl-tetrazolium bromide (MTT, Thermo Fisher Scientific). Briefly, the cells were seeded in a 96-well plate at a density of 5 × 10^3 cells/well. After 24 h, a neurotoxin 1-methyl-4-phenylpyridinium (MPP^+) (Sigma-Aldrich) was applied to induce toxicity in neuronal cells. Next, the cells were incubated with MTT for 4 h, and formazan crystals were solubilized using DMSO. Absorbance was measured using a multi-plate reader at a wavelength of 570 nm, and the viability of the cells was recorded as a percentage of the control.

SH-SY5Y cells [3] = experiment: Real-time qPCR of genes of mitochondrial function; format: cell-based, human; details: HN 20 μM, 24 h
Description: For real-time qPCR, total RNA was extracted using TRIzol reagent (Thermo Fisher Scientific). cDNA was synthesized using a cDNA synthesis kit (Bioneer Corporation), according to the manufacturer's protocol. The mRNA levels were analyzed in a LightCycler 96 (Roche, Basel, Switzerland) using SYBR Green I master mix and SensiFAST™ SYBR® No-ROX Kit (Bioline, Paris, France). B2M (beta-2-microglobulin) gene expression was used to normalize gene expression data. The primer sequences used in this experiment are in Table S2.

SH-SY5Y cells [4] = experiment: Mitochondrial membrane potential (TMRM) and mitochondrial ROS (MitoSOX); format: cell-based, human
Description: The SH-SY5Y cells were cultured in 96-well plates for 24 h before treatment. At the indicated time points, the cellular medium was removed, and the cells were washed with PBS. Mitochondrial ROS levels were measured using MitoSOX Red (Thermo Fisher Scientific) as described previously. The cells were counterstained using Hoechst 33342 (Sigma-Aldrich). Fluorescence intensity was quantified using a Synergy H1 multimode microplate reader (BioTek, Winooski, VT, USA) according to the manufacturer's protocol.
The cells were seeded in 96-well plates and treated as described above. To analyze the mitochondrial membrane potential, TMRM (Thermo Fisher Scientific) was used according to the manufacturer's instructions. The cells were counterstained using Hoechst 33342 (Sigma-Aldrich). Fluorescence intensity was assessed using a Synergy H1 multimode microplate reader or an LSR Fortessa cytometer at the Neuroscience Translational Research Solution Center.

[5] = HN pre-treatment 12 h, then MPP+ 100 μM 24 h, dose-dependent

humanin (MAPRGFSCLLLLTSEIDLPVKRRA; Humanin; UniProt Q8IVG9 1-24, looked up) [HN, mitochondria-derived peptide encoded by the mitochondrial genome, synthesized by Fmoc-based SPPS at GL Biochem]
induction of intracellular humanin by HN peptide [1]: abolished | neurite number ([2]; HN 1 μM versus DMSO): increased neurite number | neurite loss induced by MPP+ [2, 5]: rescued the neurite loss and neuronal death | neuronal death induced by MPP+ (viability, MTT) [2, 5]: rescued the neurite loss and neuronal death | average length of all sprouting neurites per neuron ([2]; HN-treated versus DMSO-treated neurons, slightly higher): not statistically significant | transcript levels of mitochondrial biogenesis (PGC-1α, NRF1, ESRRA) and oxidative phosphorylation (SDHA, ATP5F1A, ATP5F1D) genes (SH-SY5Y cells [3]): significant increase | expression of fatty acid metabolism and TCA cycle genes (SH-SY5Y cells [3]; ACC2, ACLY, FASN, IDH3A): a significant alteration was not observed | FCCP-induced mitochondrial depolarization (SH-SY5Y cells [4]; HN pre-treatment 24 h, 20 μM, FCCP 5 μM, 15 min, flow cytometry): effective in restoring | mitochondrial membrane potential (TMRM) (SH-SY5Y cells [4]; HN pre-treatment before MPP+, flow cytometry, normalized to Hoechst 33342): effectively inhibited reduction in mitochondrial potential | mitochondrial ROS production (MitoSOX) (SH-SY5Y cells [4]; HN pre-treatment before MPP+, normalized to Hoechst 33342): effectively inhibited
